For one experiment, the system named is S. mansoni schistosomula. Nature of the experiment: Automated ex vivo larval S. mansoni HCS assay. The experiment is classed as cell-based, Schistosoma mansoni. The conditions noted are these: 48 h exposure.
In another experiment the test system is SmTGR. The conditions noted are these: cited from earlier work.

This passage reports schistosomula phenotype and SmTGR inhibition mode results from article PMC5844225 (Journal of medicinal chemistry, 2016).

Take `Cc1noc(/C=C/c2ccccn2)c1[N+](=O)[O-]` [Compound 3, 2-[2-(3-methyl-4-nitro-5-isoxazolyl)vinyl]pyridine]: the schistosomula phenotype entry in the experiment on S. mansoni schistosomula is “internal disruption of larvae”.

For the molecule `O=S(=O)(Cc1ccccc1)c1nc2ccccc2s1` [Compound 4, 2-(benzylsulfonyl)-1,3-benzothiazole], the schistosomula phenotype entry in the experiment with S. mansoni schistosomula is reported as “internal disruption of larvae”.

As to `Cc1c(-c2cnccn2)ssc1=S` [OLT, oltipraz], in the experiment with SmTGR, the SmTGR inhibition mode entry is on record as “noncompetitive inhibitor”.
